Measurements as given in the NIST ThermoML archive (doi:10.1021/je900596d).

Settings: for mass density: Vibrating tube method

FC(F)=C(F)C(F)(F)F [hexafluoropropene]
Settings | mass density [kg/m3] | vapor or sublimation pressure [kPa]
343.18 K, 7163.7 kPa, Liquid | 1166.5 | –
343.18 K, 7207.1 kPa, Liquid | 1167.25 | –
343.18 K, 7249.5 kPa, Liquid | 1168.08 | –
343.18 K, 7293.3 kPa, Liquid | 1168.78 | –
343.18 K, 7354.7 kPa, Liquid | 1169.81 | –
343.18 K, 7477.5 kPa, Liquid | 1171.63 | –
343.18 K, 7539.3 kPa, Liquid | 1172.69 | –
343.18 K, 7580 kPa, Liquid | 1173.37 | –
343.18 K, 7621.6 kPa, Liquid | 1174.18 | –
343.18 K, 7663.4 kPa, Liquid | 1174.54 | –
343.18 K, 7709.7 kPa, Liquid | 1175.39 | –
343.18 K, 7753.6 kPa, Liquid | 1176.17 | –
343.18 K, 7797.5 kPa, Liquid | 1176.76 | –
343.18 K, 7837.6 kPa, Liquid | 1177.31 | –
343.18 K, 7898.4 kPa, Liquid | 1178.24 | –
343.18 K, 7941.1 kPa, Liquid | 1178.97 | –
343.18 K, 7984.5 kPa, Liquid | 1179.58 | –
343.18 K, 8043.1 kPa, Liquid | 1180.22 | –
343.18 K, 8085.6 kPa, Liquid | 1180.85 | –
343.18 K, 8131.1 kPa, Liquid | 1181.65 | –
343.18 K, 8209.9 kPa, Liquid | 1183.02 | –
343.18 K, 8291.5 kPa, Liquid | 1184.04 | –
343.18 K, 8335.5 kPa, Liquid | 1184.74 | –
343.18 K, 8378 kPa, Liquid | 1185.42 | –
343.18 K, 8419.6 kPa, Liquid | 1185.91 | –
343.18 K, 8464.8 kPa, Liquid | 1186.51 | –
343.18 K, 8525.6 kPa, Liquid | 1187.33 | –
343.18 K, 8587 kPa, Liquid | 1188.25 | –
343.18 K, 8628.5 kPa, Liquid | 1188.86 | –
343.18 K, 8670.7 kPa, Liquid | 1189.47 | –
343.18 K, 8714.6 kPa, Liquid | 1189.91 | –
343.18 K, 8776.2 kPa, Liquid | 1190.93 | –
343.18 K, 8818.3 kPa, Liquid | 1191.58 | –
343.18 K, 8881.2 kPa, Liquid | 1192.4 | –
343.18 K, 8941.7 kPa, Liquid | 1193.53 | –
343.18 K, 9000.5 kPa, Liquid | 1194.02 | –
343.18 K, 9064 kPa, Liquid | 1194.66 | –
343.18 K, 9123.4 kPa, Liquid | 1195.43 | –
343.18 K, 9184.1 kPa, Liquid | 1196.23 | –
343.18 K, 9262 kPa, Liquid | 1197.29 | –
343.18 K, 9304.6 kPa, Liquid | 1197.74 | –
343.18 K, 9350.1 kPa, Liquid | 1198.56 | –
343.18 K, 9408.2 kPa, Liquid | 1199.15 | –
343.18 K, 9449.8 kPa, Liquid | 1199.74 | –
343.18 K, 9509.5 kPa, Liquid | 1200.56 | –
343.18 K, 9567.5 kPa, Liquid | 1201.28 | –
343.18 K, 9607.9 kPa, Liquid | 1202.1 | –
343.18 K, 9667.5 kPa, Liquid | 1202.79 | –
343.18 K, 9708 kPa, Liquid | 1203.31 | –
343.18 K, 9749.9 kPa, Liquid | 1203.76 | –
343.18 K, 9796.9 kPa, Liquid | 1204.53 | –
343.18 K, 9839 kPa, Liquid | 1205.06 | –
343.18 K, 9920.9 kPa, Liquid | 1205.9 | –
343.18 K, 9962.6 kPa, Liquid | 1206.45 | –
343.21 K, Liquid, Closed cell (Static) method | – | 2243.8
343.26 K, 3.2 kPa, Fluid (supercritical or subcritical phases) | 0.22 | –
343.26 K, 5.9 kPa, Fluid (supercritical or subcritical phases) | 0.35 | –
343.26 K, 8.6 kPa, Fluid (supercritical or subcritical phases) | 0.55 | –
343.26 K, 10.3 kPa, Fluid (supercritical or subcritical phases) | 0.63 | –
343.26 K, 12.1 kPa, Fluid (supercritical or subcritical phases) | 0.73 | –
343.26 K, 14.8 kPa, Fluid (supercritical or subcritical phases) | 0.81 | –
343.26 K, 16.4 kPa, Fluid (supercritical or subcritical phases) | 1 | –
343.26 K, 19.5 kPa, Fluid (supercritical or subcritical phases) | 1.07 | –
343.26 K, 22.4 kPa, Fluid (supercritical or subcritical phases) | 1.29 | –
343.26 K, 24.3 kPa, Fluid (supercritical or subcritical phases) | 1.34 | –
343.26 K, 25.9 kPa, Fluid (supercritical or subcritical phases) | 1.39 | –
343.26 K, 29 kPa, Fluid (supercritical or subcritical phases) | 1.68 | –
343.26 K, 32 kPa, Fluid (supercritical or subcritical phases) | 1.75 | –
343.26 K, 33.6 kPa, Fluid (supercritical or subcritical phases) | 1.83 | –
343.26 K, 36.6 kPa, Fluid (supercritical or subcritical phases) | 1.97 | –
343.26 K, 38.2 kPa, Fluid (supercritical or subcritical phases) | 2.07 | –
343.26 K, 39.9 kPa, Fluid (supercritical or subcritical phases) | 2.11 | –
343.26 K, 43.2 kPa, Fluid (supercritical or subcritical phases) | 2.31 | –
343.26 K, 45.9 kPa, Fluid (supercritical or subcritical phases) | 2.54 | –
343.26 K, 50.6 kPa, Fluid (supercritical or subcritical phases) | 2.72 | –
343.26 K, 55.4 kPa, Fluid (supercritical or subcritical phases) | 3 | –
343.26 K, 59.9 kPa, Fluid (supercritical or subcritical phases) | 3.25 | –
343.26 K, 63.1 kPa, Fluid (supercritical or subcritical phases) | 3.46 | –
343.26 K, 66.1 kPa, Fluid (supercritical or subcritical phases) | 3.7 | –
343.26 K, 70.8 kPa, Fluid (supercritical or subcritical phases) | 3.87 | –
343.26 K, 72.4 kPa, Fluid (supercritical or subcritical phases) | 3.95 | –
343.26 K, 74.2 kPa, Fluid (supercritical or subcritical phases) | 4.04 | –
343.26 K, 77.2 kPa, Fluid (supercritical or subcritical phases) | 4.21 | –
343.26 K, 80.1 kPa, Fluid (supercritical or subcritical phases) | 4.42 | –
343.26 K, 81.8 kPa, Fluid (supercritical or subcritical phases) | 4.49 | –
343.26 K, 83.4 kPa, Fluid (supercritical or subcritical phases) | 4.54 | –
343.26 K, 86.6 kPa, Fluid (supercritical or subcritical phases) | 4.74 | –
343.26 K, 89.9 kPa, Fluid (supercritical or subcritical phases) | 4.91 | –
343.26 K, 94.8 kPa, Fluid (supercritical or subcritical phases) | 5.2 | –
343.26 K, 97.7 kPa, Fluid (supercritical or subcritical phases) | 5.42 | –
343.26 K, 104 kPa, Fluid (supercritical or subcritical phases) | 5.73 | –
343.26 K, 110.1 kPa, Fluid (supercritical or subcritical phases) | 6.1 | –
343.26 K, 116.3 kPa, Fluid (supercritical or subcritical phases) | 6.4 | –
343.26 K, 122.7 kPa, Fluid (supercritical or subcritical phases) | 6.8 | –
343.26 K, 129.3 kPa, Fluid (supercritical or subcritical phases) | 7.14 | –
343.26 K, 135.5 kPa, Fluid (supercritical or subcritical phases) | 7.51 | –
343.26 K, 141.7 kPa, Fluid (supercritical or subcritical phases) | 7.92 | –
343.26 K, 148.2 kPa, Fluid (supercritical or subcritical phases) | 8.27 | –
343.26 K, 154.4 kPa, Fluid (supercritical or subcritical phases) | 8.6 | –
343.26 K, 160.9 kPa, Fluid (supercritical or subcritical phases) | 8.89 | –
343.26 K, 170.1 kPa, Fluid (supercritical or subcritical phases) | 9.39 | –
343.26 K, 176.8 kPa, Fluid (supercritical or subcritical phases) | 9.8 | –
343.26 K, 183.2 kPa, Fluid (supercritical or subcritical phases) | 10.15 | –
343.26 K, 189.6 kPa, Fluid (supercritical or subcritical phases) | 10.49 | –
343.26 K, 200.5 kPa, Fluid (supercritical or subcritical phases) | 11.16 | –
343.26 K, 213.3 kPa, Fluid (supercritical or subcritical phases) | 11.94 | –
343.26 K, 225.8 kPa, Fluid (supercritical or subcritical phases) | 12.7 | –
343.26 K, 237.9 kPa, Fluid (supercritical or subcritical phases) | 13.34 | –
343.26 K, 250.5 kPa, Fluid (supercritical or subcritical phases) | 14.05 | –
343.26 K, 262.7 kPa, Fluid (supercritical or subcritical phases) | 14.74 | –
343.26 K, 274 kPa, Fluid (supercritical or subcritical phases) | 15.32 | –
343.26 K, 286 kPa, Fluid (supercritical or subcritical phases) | 16.09 | –
343.26 K, 298.3 kPa, Fluid (supercritical or subcritical phases) | 16.8 | –
343.26 K, 311.2 kPa, Fluid (supercritical or subcritical phases) | 17.55 | –
343.26 K, 323.1 kPa, Fluid (supercritical or subcritical phases) | 18.22 | –
343.26 K, 335.5 kPa, Fluid (supercritical or subcritical phases) | 18.98 | –
343.26 K, 347.7 kPa, Fluid (supercritical or subcritical phases) | 19.66 | –
343.26 K, 360 kPa, Fluid (supercritical or subcritical phases) | 20.46 | –
343.26 K, 372.1 kPa, Fluid (supercritical or subcritical phases) | 21.09 | –
343.26 K, 384.1 kPa, Fluid (supercritical or subcritical phases) | 21.84 | –
343.26 K, 396.5 kPa, Fluid (supercritical or subcritical phases) | 22.56 | –
343.26 K, 408.2 kPa, Fluid (supercritical or subcritical phases) | 23.28 | –
343.26 K, 420.5 kPa, Fluid (supercritical or subcritical phases) | 24.04 | –
343.26 K, 431.3 kPa, Fluid (supercritical or subcritical phases) | 24.66 | –
343.26 K, 443.3 kPa, Fluid (supercritical or subcritical phases) | 25.35 | –
343.26 K, 455.1 kPa, Fluid (supercritical or subcritical phases) | 26 | –
343.26 K, 466.9 kPa, Fluid (supercritical or subcritical phases) | 26.77 | –
343.26 K, 478.8 kPa, Fluid (supercritical or subcritical phases) | 27.49 | –
343.26 K, 490.9 kPa, Fluid (supercritical or subcritical phases) | 28.19 | –
343.26 K, 507.3 kPa, Fluid (supercritical or subcritical phases) | 29.18 | –
343.26 K, 521.6 kPa, Fluid (supercritical or subcritical phases) | 30.11 | –
343.26 K, 535.5 kPa, Fluid (supercritical or subcritical phases) | 30.9 | –
343.26 K, 548.6 kPa, Fluid (supercritical or subcritical phases) | 31.65 | –
343.26 K, 561.3 kPa, Fluid (supercritical or subcritical phases) | 32.53 | –
